Assays:
[1] = molecular target: T1, Protein mono-ADP-ribosyltransferase PARP15 (Homo sapiens) (UniProt Q460N3); assay: (§1) Inhibition of N-terminal GST-tagged human PARP15 (221 to 444 residues) expressed in Escherichia coli assessed as reduction in NAD+-dependent ADP ribosylation using histone as substrate at 10 uM incubated for 1 hr in presence of biotinylated NAD+ and activated DNA by chemiluminescence based microplate reader assay relative to control
T1 sequence (whole entry): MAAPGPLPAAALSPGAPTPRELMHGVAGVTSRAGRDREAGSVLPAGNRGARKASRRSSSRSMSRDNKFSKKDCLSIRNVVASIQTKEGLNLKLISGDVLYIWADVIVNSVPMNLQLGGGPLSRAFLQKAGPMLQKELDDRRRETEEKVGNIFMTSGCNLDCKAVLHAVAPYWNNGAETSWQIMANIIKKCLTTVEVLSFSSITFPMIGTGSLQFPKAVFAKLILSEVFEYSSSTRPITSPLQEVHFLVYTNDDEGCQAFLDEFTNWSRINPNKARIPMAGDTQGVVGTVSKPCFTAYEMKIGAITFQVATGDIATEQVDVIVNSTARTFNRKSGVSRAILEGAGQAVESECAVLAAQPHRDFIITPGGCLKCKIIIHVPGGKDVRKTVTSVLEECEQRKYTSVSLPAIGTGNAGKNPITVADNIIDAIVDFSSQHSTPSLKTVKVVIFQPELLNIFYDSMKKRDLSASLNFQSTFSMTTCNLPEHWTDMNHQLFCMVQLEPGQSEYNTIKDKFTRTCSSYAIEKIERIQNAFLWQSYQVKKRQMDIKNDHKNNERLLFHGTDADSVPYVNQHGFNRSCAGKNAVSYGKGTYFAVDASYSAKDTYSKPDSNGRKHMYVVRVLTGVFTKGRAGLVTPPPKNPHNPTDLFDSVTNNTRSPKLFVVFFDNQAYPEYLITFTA

[2] = molecular target: T2, Protein mono-ADP-ribosyltransferase PARP3 (Homo sapiens) (UniProt Q9Y6F1); assay: as §1, with “GST tagged full length” for “GST-tagged”, “PARP3” for “PARP15 (221 to 444 residues)”, “baculovirus infected Sf9 cells” for “Escherichia coli”
T2 sequence (whole entry): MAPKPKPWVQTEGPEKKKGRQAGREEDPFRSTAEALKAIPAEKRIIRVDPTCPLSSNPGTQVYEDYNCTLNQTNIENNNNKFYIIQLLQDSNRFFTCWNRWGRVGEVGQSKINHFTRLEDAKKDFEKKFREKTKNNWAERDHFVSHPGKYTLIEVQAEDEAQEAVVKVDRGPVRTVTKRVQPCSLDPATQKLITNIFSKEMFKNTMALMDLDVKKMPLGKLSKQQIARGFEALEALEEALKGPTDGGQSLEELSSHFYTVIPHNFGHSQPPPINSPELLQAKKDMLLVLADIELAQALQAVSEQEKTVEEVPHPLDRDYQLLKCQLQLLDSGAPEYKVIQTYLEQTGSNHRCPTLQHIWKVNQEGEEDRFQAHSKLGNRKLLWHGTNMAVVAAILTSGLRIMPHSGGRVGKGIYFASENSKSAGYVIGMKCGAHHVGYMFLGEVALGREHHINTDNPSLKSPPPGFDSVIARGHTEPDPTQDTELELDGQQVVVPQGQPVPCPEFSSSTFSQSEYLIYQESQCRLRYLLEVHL

[3] = molecular target: T3, Protein mono-ADP-ribosyltransferase PARP11 (Homo sapiens) (UniProt Q9NR21); assay: as §1, with “GST tagged” for “GST-tagged”, “PARP11 (8” for “PARP15 (221”, “338” for “444”, “baculovirus infected Sf9 cells” for “Escherichia coli”
T3 sequence (whole entry): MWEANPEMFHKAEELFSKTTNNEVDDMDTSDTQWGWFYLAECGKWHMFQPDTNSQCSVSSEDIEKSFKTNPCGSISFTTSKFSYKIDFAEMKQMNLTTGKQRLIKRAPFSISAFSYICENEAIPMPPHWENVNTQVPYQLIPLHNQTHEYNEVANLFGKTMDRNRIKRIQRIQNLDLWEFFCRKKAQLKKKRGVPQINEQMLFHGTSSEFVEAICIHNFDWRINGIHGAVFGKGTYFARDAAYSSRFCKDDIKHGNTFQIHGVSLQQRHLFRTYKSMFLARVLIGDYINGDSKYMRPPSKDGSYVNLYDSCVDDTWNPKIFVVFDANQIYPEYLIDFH

[4] = molecular target: Poly [ADP-ribose] polymerase 2 (Homo sapiens) (UniProt Q9UGN5); assay: as §1, with “GST tagged” for “GST-tagged”, “PARP2 (2” for “PARP15 (221”, “583” for “444”, “baculovirus infected Sf9 cells” for “Escherichia coli”
[5] = molecular target: Protein mono-ADP-ribosyltransferase PARP6 (Homo sapiens) (UniProt Q2NL67); assay: as §1, with “GST tagged full length” for “GST-tagged”, “PARP6” for “PARP15 (221 to 444 residues)”, “baculovirus infected Sf9 cells” for “Escherichia coli”
Protein mono-ADP-ribosyltransferase PARP6 (Homo sapiens), sequence (Q2NL67 whole entry, the tested form may be a part): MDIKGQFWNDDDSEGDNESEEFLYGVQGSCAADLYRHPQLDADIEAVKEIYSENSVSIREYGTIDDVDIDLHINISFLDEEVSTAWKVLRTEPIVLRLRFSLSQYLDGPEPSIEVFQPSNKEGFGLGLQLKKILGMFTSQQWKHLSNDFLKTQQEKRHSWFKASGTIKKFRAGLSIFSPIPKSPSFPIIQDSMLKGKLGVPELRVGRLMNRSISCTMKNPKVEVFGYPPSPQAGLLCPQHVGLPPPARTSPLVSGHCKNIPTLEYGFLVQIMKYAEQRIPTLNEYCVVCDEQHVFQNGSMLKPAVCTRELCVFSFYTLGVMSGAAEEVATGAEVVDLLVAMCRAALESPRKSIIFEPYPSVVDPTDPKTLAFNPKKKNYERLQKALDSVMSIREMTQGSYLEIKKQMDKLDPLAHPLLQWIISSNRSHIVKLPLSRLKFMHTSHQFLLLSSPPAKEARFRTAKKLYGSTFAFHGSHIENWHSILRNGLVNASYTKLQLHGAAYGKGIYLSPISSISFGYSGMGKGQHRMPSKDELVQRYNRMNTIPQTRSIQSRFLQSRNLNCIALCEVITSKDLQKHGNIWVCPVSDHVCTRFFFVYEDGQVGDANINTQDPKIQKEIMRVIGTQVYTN

Poly [ADP-ribose] polymerase 2 (Homo sapiens), sequence (Q9UGN5 whole entry, the tested form may be a part): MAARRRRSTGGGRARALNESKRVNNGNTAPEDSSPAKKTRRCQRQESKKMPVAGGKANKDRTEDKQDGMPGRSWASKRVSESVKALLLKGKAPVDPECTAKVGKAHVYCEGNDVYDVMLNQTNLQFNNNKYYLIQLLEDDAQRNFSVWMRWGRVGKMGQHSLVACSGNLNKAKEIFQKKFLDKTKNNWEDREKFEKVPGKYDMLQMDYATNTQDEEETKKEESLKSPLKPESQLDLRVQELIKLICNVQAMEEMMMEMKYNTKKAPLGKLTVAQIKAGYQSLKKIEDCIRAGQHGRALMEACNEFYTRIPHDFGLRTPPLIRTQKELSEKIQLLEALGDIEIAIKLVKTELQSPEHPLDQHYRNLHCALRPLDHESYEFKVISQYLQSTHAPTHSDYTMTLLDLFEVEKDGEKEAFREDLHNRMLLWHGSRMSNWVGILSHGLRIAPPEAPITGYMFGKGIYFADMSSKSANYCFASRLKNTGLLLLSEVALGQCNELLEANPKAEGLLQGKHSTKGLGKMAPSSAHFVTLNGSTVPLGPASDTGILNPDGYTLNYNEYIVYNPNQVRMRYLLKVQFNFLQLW

inhibition [1] [%]	inhibition [2] [%]	inhibition [3] [%]	inhibition [4] [%]	inhibition [5] [%]	Compound
< 25	< 25	< 25	< 25	< 25	CNC(=O)[C@H](CNC(=O)CCc1nc2ccccc2[nH]c1=O)NC(=O)c1ccc2c(c1)CCCC2=O
10	22	> 50	100	0	CC1(CNC(=O)COc2cccc3c2CCCC3=O)CCN(C(=O)CCc2nc3ccccc3[nH]c2=O)CC1

From ChEMBL document CHEMBL4699460, “Integrating DNA-encoded chemical libraries with virtual combinatorial library screening: Optimizing a PARP10 inhibitor” (Bioorg Med Chem Lett, 2020)
